In patent US7592353B2, “Substituted 3-amino-thieno[2,3-b]pyridine-2-carboxylic acid amide compounds and processes for preparing and their uses” (Boehringer Ingelheim International GmbH, priority 2006, dated 2009):

How the values were obtained:
[1] = Rat oral exposure (plasma exposure upon oral administration); format: in vivo; settings: for concentration at 2 h / concentration at 6 h / concentration at 10 h: plasma, rat, oral, 10 mg/kg; for concentration at 2 h: read-out: Rat oral exposure (μM) @ 10 mg/kg dose 2h; for concentration at 6 h: read-out: Rat oral exposure (μM) @ 10 mg/kg dose 6h; for concentration at 10 h: read-out: Rat oral exposure (μM) @ 10 mg/kg dose 10h
[2] = system: ICAM-1 Expression on HeLa Cells; assay: Cell assay HeLa: ELISA of TNFα-stimulated ICAM-1 expression on HeLa cells; format: cell-based; settings: for IC50: Homo sapiens, HeLa cells, TNFα stimulation, ICAM-1 expression; for cellular potency relative to the —CF3 group of compound 101: comparison in words, Table II
Experimental: HeLa cells are seeded on 96 well tissue culture treated plates (Costar) in complete medium comprised of 10% decomplemented fetal bovine serum in RPMI1640 with gentamycin and L-glutamine and grown overnight to confluence. The following day, the media is changed and the wells are treated with test compounds. 10 mM DMSO stock solutions of compounds are serially diluted with 0.1% DMSO (final concentration)-screening media to 5 final concentrations (starting at 10 μM). Compounds are pre-incubated with cells for 30 min followed by stimulation with TNFα (R&D Systems) for 5-6 hr. The adherent cells are then assayed for expression of intercellular adhesion molecule-1 (ICAM-1). Monolayers are washed three times with D-PBS (Gibco) and fixed for 10 min at room temperature with 1% paraformaldehyde (Polysciences, Inc) diluted in D-PBS. After washing to remove fixative, the monolayers are blocked with 2% BSA-D-PBS overnight at 4° C. 100 μL of anti-ICAM-1 mAB RR1-HRP (diluted 1:5000 in 2% BSA-DPBS; Zymed custom conjugate of BIPI mAB) is added for 1 hr at 37° C. Wells are washed three times with D-PBS. 100 μL of ABTS substrate diluted in substrate buffer (Zymed) is added to each well. Optical absorbance is measured at 405 nm in a Thermomax microplate reader ([…]). Data is plotted as percent of control and IC50s are determined using xlfit 4 model # 201.

[3] = target: T1, human IKKβ (Homo sapiens, UniProt O14920); assay: Molecular assay IKKb: phosphorylation of IκBα substrate by IKKβ; format: biochemical
T1 construct: FLAG (N)
T1 sequence (O14920 1-756): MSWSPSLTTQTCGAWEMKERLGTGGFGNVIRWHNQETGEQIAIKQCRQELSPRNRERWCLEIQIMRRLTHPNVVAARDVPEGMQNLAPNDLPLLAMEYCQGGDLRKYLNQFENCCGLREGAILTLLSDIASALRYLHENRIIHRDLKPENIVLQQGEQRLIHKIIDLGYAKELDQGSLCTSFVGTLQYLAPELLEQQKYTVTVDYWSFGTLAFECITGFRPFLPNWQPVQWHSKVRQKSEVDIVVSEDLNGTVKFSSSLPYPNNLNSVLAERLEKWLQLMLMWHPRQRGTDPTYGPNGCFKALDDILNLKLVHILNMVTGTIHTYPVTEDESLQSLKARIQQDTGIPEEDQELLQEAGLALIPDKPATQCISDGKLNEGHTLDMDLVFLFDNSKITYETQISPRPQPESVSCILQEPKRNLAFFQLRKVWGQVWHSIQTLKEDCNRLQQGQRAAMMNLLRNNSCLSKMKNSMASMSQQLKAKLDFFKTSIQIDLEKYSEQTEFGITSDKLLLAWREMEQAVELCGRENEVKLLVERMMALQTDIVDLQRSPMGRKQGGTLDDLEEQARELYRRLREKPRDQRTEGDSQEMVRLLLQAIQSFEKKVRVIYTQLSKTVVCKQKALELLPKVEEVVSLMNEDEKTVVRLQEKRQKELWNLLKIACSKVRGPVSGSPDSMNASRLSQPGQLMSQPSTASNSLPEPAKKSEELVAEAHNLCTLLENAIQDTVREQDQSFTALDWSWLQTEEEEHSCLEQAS
Experimental: The inhibition of IKKα and IKKβ by the compounds of the present invention can be determined with the following assay that measures the phosphorylation of the IκBα substrate by the respective kinases. The enzymes used in the assay were N-terminally flag-tagged versions of the human IKKβ or IKKα and the substrate was a GST fusion protein with IκBα (amino acids 1-54).
The reaction mixtures (60 μl) contained 20 mM HEPES pH 7.5, 10 mM MgCl2, 2 mM MnCl2, 100 mM NaCl, 100 μM Na3VO4, 20 mM β-glycerophosphate, 1 mM DTT, 2% DMSO, 250 nM ATP, 0.4 nM [^33P]ATP (specific activity, 3000 Ci/mmol), IκBα substrate, IKK enzyme and test compound. The reaction mixtures contained either 3.6 μg/ml IKKα and 245 μg/ml IκBα or 0.9 μg/ml IKKβ and 53 μg/ml IκBα.
Reactions were initiated by adding a solution of IκBα substrate and ATP to polypropylene plates containing IKK enzyme that was pre-incubated for 5 minutes with test compound. Then the reaction mixtures were incubated for 1 hour at 25° C., placed on ice and quenched by the addition of 150 μl 10% trichloroacetic acid and 5% disodium pyrophosphate. After mixing, the entire contents of the quenched reaction mixtures were transferred to a pre-wetted Packard UniFilter filtration plate, aspirated and washed 6 times with 250 μl of ddH2O using the Packard Filtermate Harvester. Filtration plates were then air dried, supplemented with 40 μl of Microscint 20 scintillation fluid and the ^33P-labeled reaction products were quantified using the Packard TopCount scintillation counter.
Compounds were tested in three-fold serial dilutions and inhibitor concentrations to achieve 50% inhibition of enzyme activity (i.e., IC50) were derived from dose-response curves using SAS software (SAS Institute, Cary N.C.). A non-linear regression analysis based on the Hill equation was applied to the percent inhibition versus concentration data. In all cases, compound concentrations were verified by HPLC.

[4] = system: established type II collagen arthritis in rats; assay: Rat CIA model (7 day rat established type II collagen arthritis); format: in vivo
Excerpt: Effects of Compounds in 7 Day Rat Established Type II Collagen Arthritis
Purpose: To determine the dose responsive efficacy of compounds administered by oral gavage dosing bid in inhibiting the inflammation, cartilage destruction and bone resorption of established type II collagen arthritis in rats. The terminal pharmacokinetic component is included.
Animals: 36 (Order 42) Female Lewis rats (Harlan, 1173000), weighing 125-150 g on arrival. Extras are used because animals with arthritis are selected and there is not 100% incidence of disease in this model in the short time frame for enrollment (inject 42 with collagen to get […] solid responders on days 10, 11 for 4 groups of 8. Four rats are used to serve as normal controls.
Materials: Agents or drugs in vehicle (Cremaphor), Type II collagen, Freund's incomplete adjuvant.
General Study Design: Animals (8/group for arthritis, 4/group for normal control), housed 4/cage, are acclimated for 4-8 days.
Acclimated animals are anesthetized with Isoflurane and given collagen injections (day 0). […]
Statistical analysis of body/paw weights and paw AUC and histopathology parameters are evaluated using a one-way analysis of variance (ANOVA). […]
Percent inhibition of paw weight and AUC is calculated using the following formula: % Inhibition=A−B/A×100 A=Mean Disease Control−Mean Normal B=Mean Treated−Mean Normal

Row | concentration at 2 h [1] [µM] | concentration at 6 h [1] [µM] | concentration at 10 h [1] [µM] | IC50 [2] [nM] | IC50 [3] [nM] | Structure (SMILES) | level of sustained plasma exposure upon oral administration to rat, versus Compound 100 ([1]; comparison in words, Table II) | cellular potency relative to the —CF3 group of compound 101 [2] | oral activity in a rat model of collagen induced arthritis ([4]; comparison in words, Table III) | Inhibition of paw weight increase ([4]; rat CIA, oral, 10 mg/kg BID) [%]
1 | 1.59 | 0.78 | 0.65 | 700 | 26 | CCC(F)(F)c1cc(N2CCC(S(C)(=O)=O)CC2)nc2sc(C(N)=O)c(N)c12 [Compound 115, 3-Amino-4-(1,1-difluoro-propyl)-6-(4-methanesulfonyl-piperidin-1-yl)-thieno[2,3-b]pyridine-2-carboxylic acid amide] | improved level of sustained plasma exposure | improved cellular potency | superior oral activity | 44
2 | – | – | – | 3200 | 120 | CS(=O)(=O)C1CCN(c2cc(C(F)(F)F)c3c(N)c(C(N)=O)sc3n2)CC1 [Compound 101] | – | – | – | –
3 | 0.21 | 0.12 | 0.08 | 720 | 78 | CCCc1cc(N2CCC(S(C)(=O)=O)CC2)nc2sc(C(N)=O)c(N)c12 [Compound 100, reference compound] | – | improved cellular potency | – | –
